Measured values published in patent US6518243B1, “Desleucyl glycopeptide antibiotics and methods of making same” (Trustees of Princeton University, priority 1999, dated 2003).

What was measured:
Assay in all cases: Zone of inhibition screen, 96 well agar array format;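 as to zone score, E. faecium ATCC 49624: score 3 means fourfold and score 4 sixteenfold the reference zone size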
E. faceium (ATCC 49624) = assay type: cell-based, E. faecium
Protocol: The antibacterial activity of each of the compounds against the bacterial strains E. faceium (ATCC 49624), S. epidermidis (ATCC 12228), S. aureus (ATCC 29213), E. faecalis (CL 4877) and E. faecalis (ATCC 292121) was tested. Each of the compounds was screened in a 96 will agar array format.

E. faecalis (CL 4877) = assay type: cell-based; set-up: scale not given here
Procedure, shortened: (§1)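 Read-out is antibacterial activity on agar laid out as a 96-well array; every compound went through all strains of the panel.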

[1] = test system: S. epidermidis (ATCC 12228); assay type: cell-based; set-up: scale not given here
Procedure, shortened: as §1

S. aureus (ATCC 29213) = assay type: cell-based; set-up: scale not given here; details: zone of inhibition relative to 1 mg/ml stock solution of p-chlorobiphenylvancomycin
Procedure, shortened: as §1

[2] = zone of inhibition relative to 1 mg/ml p-chlorobiphenylvancomycin
[3] = zone of inhibition relative to 1 mg/ml stock solution of p-chlorobiphenylvancomycin

SMILES	zone score, E. faecium ATCC 49624 (E. faceium (ATCC 49624); [2])	zone score, E. faecium ATCC 49624 (E. faceium (ATCC 49624); [3])	zone score, E. faecalis CL 4877 (E. faecalis (CL 4877); [3])	other results
CC(N)C(=O)NC1C(=O)NC(CC(N)=O)C(=O)NC2C(=O)NC3C(=O)NC(C(=O)NC(C(=O)O)c4cc(O)cc(O)c4-c4cc3ccc4O)C(O)c3ccc(c(Cl)c3)Oc3cc2cc(c3OC2OC(CO)C(O)C(O)C2OC2CC(C)(NCc3ccc(-c4ccc(Cl)cc4)cc3)C(O)C(C)O2)Oc2ccc(cc2Cl)C1O (stereo not drawn) [Compound 220]	2	–	–	–
CC1OC(OC2C(Oc3c4cc5cc3Oc3ccc(cc3Cl)C(O)C3NC(=O)C(NC(=O)C5NC(=O)C(CC(N)=O)NC(=O)C(NC(=O)CC(O)C[N+](C)(C)C)C(O)c5ccc(c(Cl)c5)O4)c4ccc(O)c(c4)-c4c(O)cc(O)cc4C(C(=O)O)NC3=O)OC(CO)C(O)C2O)CC(C)(NCc2ccc(-c3ccc(Cl)cc3)cc2)C1O (stereo not drawn) [Compound 149]	–	2	2	–
CC(=O)c1ccc(C(=O)NC2C(=O)NC(CC(N)=O)C(=O)NC3C(=O)NC4C(=O)NC(C(=O)NC(C(=O)O)c5cc(O)cc(O)c5-c5cc4ccc5O)C(O)c4ccc(c(Cl)c4)Oc4cc3cc(c4OC3OC(CO)C(O)C(O)C3OC3CC(C)(NCc4ccc(-c5ccc(Cl)cc5)cc4)C(O)C(C)O3)Oc3ccc(cc3Cl)C2O)cc1 (stereo not drawn) [Compound 267]	2	–	–	zone score, S. epidermidis ATCC 12228 [1, 2]: 2
CC1OC(OC2C(Oc3c4cc5cc3Oc3ccc(cc3Cl)C(O)C3NC(=O)C(NC(=O)C5NC(=O)C(CC(N)=O)NC(=O)C(NC(=O)Cn5cccc(N)c5=O)C(O)c5ccc(c(Cl)c5)O4)c4ccc(O)c(c4)-c4c(O)cc(O)cc4C(C(=O)O)NC3=O)OC(CO)C(O)C2O)CC(C)(NCc2ccc(-c3ccc(Cl)cc3)cc2)C1O (stereo not drawn) [Compound 32]	–	2	2	zone score, S. aureus ATCC 29213 (S. aureus (ATCC 29213)): 2
CSCC(N)C(=O)NC1C(=O)NC(CC(N)=O)C(=O)NC2C(=O)NC3C(=O)NC(C(=O)NC(C(=O)O)c4cc(O)cc(O)c4-c4cc3ccc4O)C(O)c3ccc(c(Cl)c3)Oc3cc2cc(c3OC2OC(CO)C(O)C(O)C2OC2CC(C)(NCc3ccc(-c4ccc(Cl)cc4)cc3)C(O)C(C)O2)Oc2ccc(cc2Cl)C1O (stereo not drawn) [Compound 50]	–	2	2	–
CC(=O)NCCCCC(N)C(=O)NC1C(=O)NC(CC(N)=O)C(=O)NC2C(=O)NC3C(=O)NC(C(=O)NC(C(=O)O)c4cc(O)cc(O)c4-c4cc3ccc4O)C(O)c3ccc(c(Cl)c3)Oc3cc2cc(c3OC2OC(CO)C(O)C(O)C2OC2CC(C)(NCc3ccc(-c4ccc(Cl)cc4)cc3)C(O)C(C)O2)Oc2ccc(cc2Cl)C1O (stereo not drawn) [Compound 76]	–	2	–	zone score, S. epidermidis ATCC 12228 [1, 3]: 2
CC1OC(OC2C(Oc3c4cc5cc3Oc3ccc(cc3Cl)C(O)C3NC(=O)C(NC(=O)C5NC(=O)C(CC(N)=O)NC(=O)C(NC(=O)CCS(=O)(=O)c5ccccc5)C(O)c5ccc(c(Cl)c5)O4)c4ccc(O)c(c4)-c4c(O)cc(O)cc4C(C(=O)O)NC3=O)OC(CO)C(O)C2O)CC(C)(NCc2ccc(-c3ccc(Cl)cc3)cc2)C1O (stereo not drawn) [Compound 246]	2	–	–	–
CC1OC(OC2C(Oc3c4cc5cc3Oc3ccc(cc3Cl)C(O)C3NC(=O)C(NC(=O)C5NC(=O)C(CC(N)=O)NC(=O)C(NC(=O)C(CC[S+](C)[O-])NC(=O)OC(C)(C)C)C(O)c5ccc(c(Cl)c5)O4)c4ccc(O)c(c4)-c4c(O)cc(O)cc4C(C(=O)O)NC3=O)OC(CO)C(O)C2O)CC(C)(NCc2ccc(-c3ccc(Cl)cc3)cc2)C1O (stereo not drawn) [Compound 142]	–	2	2	zone score, S. aureus ATCC 29213 (S. aureus (ATCC 29213)): 2
CC1OC(OC2C(Oc3c4cc5cc3Oc3ccc(cc3Cl)C(O)C3NC(=O)C(NC(=O)C5NC(=O)C(CC(N)=O)NC(=O)C(NC(=O)C(N)CCCNC(=N)N)C(O)c5ccc(c(Cl)c5)O4)c4ccc(O)c(c4)-c4c(O)cc(O)cc4C(C(=O)O)NC3=O)OC(CO)C(O)C2O)CC(C)(NCc2ccc(-c3ccc(Cl)cc3)cc2)C1O (stereo not drawn) [Compound 217]	2	–	–	zone score, E. faecalis CL 4877 (E. faecalis (CL 4877); [2]): 2
CC1OC(OC2C(Oc3c4cc5cc3Oc3ccc(cc3Cl)C(O)C3NC(=O)C(NC(=O)C5NC(=O)C(CC(N)=O)NC(=O)C(NC(=O)C5CC(O)CN5)C(O)c5ccc(c(Cl)c5)O4)c4ccc(O)c(c4)-c4c(O)cc(O)cc4C(C(=O)O)NC3=O)OC(CO)C(O)C2O)CC(C)(NCc2ccc(-c3ccc(Cl)cc3)cc2)C1O (stereo not drawn) [Compound 72]	–	2	2	zone score, S. epidermidis ATCC 12228 [1, 3]: 2
